In ChEMBL document CHEMBL5214928, “DEAD-Box Helicase DDX3X as a Host Target against Emerging Viruses: New Insights for Medicinal Chemical Approaches” (J Med Chem, 2022):
pEC50, pIC50, pKi: −log10 of the molar value.

Assays:
[1] = molecular target: T1, ATP-dependent RNA helicase DDX3X (Homo sapiens, UniProt O00571); test: Binding affinity to DDX3X (unknown origin) assessed as inhibition constant
Hepatitis C virus [2] = test: Antiviral activity against HCV-1 infected in human Huh-7 cells assessed as reduction in viral replication; type: functional, organism-based, Hepacivirus hominis; settings: genotype 1, Huh-7
Huh-7 = test: Cytotoxicity against human Huh-7 cells assessed as reduction in cell viability; type: functional
[3] = Selectivity index, ratio of CC50 for human Huh-7 cells to EC50 for HCV-1 infected in human Huh-7 cells; type: toxicity, cell-based; settings: read-out: Ratio CC50/EC50
dengue virus type 2 [4] = test: Antiviral activity against DENV-2 infected in African green monkey Vero cells assessed as reduction in viral replication incubated for 22 hrs by plaque assay; type: functional, organism-based
[5] = Cytotoxicity against African green monkey Vero cells assessed as reduction in cell viability incubated for 22 hrs by XTT assay; type: toxicity, cell-based; settings: chlorocebus sabaeus
[6] = Selectivity index, ratio of CC50 for African green monkey Vero cells to EC50 for DENV-2 infected in African green monkey Vero cells; type: toxicity; settings: read-out: Ratio CC50/EC50
Zika virus = test: Antiviral activity against ZIKV infected in African green monkey Vero cells assessed as reduction in viral replication incubated for 22 hrs by plaque assay; type: functional, organism-based
West Nile virus [7] = test: Antiviral activity against WNV infected in African green monkey Vero cells assessed as reduction in viral replication incubated for 22 hrs by plaque formation assay; type: functional, organism-based
[8] = Selectivity index, ratio of CC50 for African green monkey Vero cells to EC50 for ZIKV infected in African green monkey Vero cells; type: toxicity; settings: read-out: Ratio CC50/EC50
[9] = Selectivity index, ratio of CC50 for African green monkey Vero cells to EC50 for WNV infected in African green monkey Vero cells; type: toxicity; settings: read-out: Ratio CC50/EC50
SARS-CoV-2 = test: Antiviral activity against SARS-CoV-2 isolate 2019-nCoV/Italy-INMI1 infected in African green monkey Vero E6 cells assessed as reduction in viral replication at MOI of 0.01 incubated for 5 days by qRT-PCR analysis; type: functional, organism-based; settings: Severe acute respiratory syndrome coronavirus 2, 2019-nCoV/Italy-INMI1, Vero C1008, 120 h
[10] = Cytotoxicity against African green monkey Vero E6 cells assessed as reduction in cell viability; type: toxicity, cell-based, Vero C1008; settings: chlorocebus sabaeus
[11] = system: Respiratory syncytial virus; test: Antiviral activity against RSV infected in African green monkey Vero cells assessed as reduction in viral replication incubated for 22 hrs by plaque formation assay; type: functional, organism-based; settings: human respiratory syncytial virus
[12] = Selectivity index, ratio of CC50 for African green monkey Vero cells to EC50 for RSV infected in African green monkey Vero cells; type: toxicity; settings: read-out: Ratio CC50/EC50
Human respirovirus 3 = test: Antiviral activity against hPIV-3 infected in African green monkey Vero cells assessed as reduction in viral replication incubated for 22 hrs by plaque formation assay; type: functional, organism-based; settings: Human respirovirus 3, Vero
[13] = Selectivity index, ratio of CC50 for African green monkey Vero cells to EC50 for hPIV-3 infected in African green monkey Vero cells; type: toxicity; settings: read-out: Ratio CC50/EC50
[14] = Half life in mouse administered intraperitoneally; type: ADME; settings: in vivo, route ip
[15] = system: Japanese encephalitis virus; test: Antiviral activity against JEV SA14-14-2 infected in hamster BHK-21 cells assessed as reduction in viral replication by plaque formation assay; type: functional, organism-based; settings: SA14-14-2, BHK-21
[16] = Cytotoxicity against hamster BHK-21 cells assessed as reduction in cell viability at MOI of 0.01 incubated for 48 hrs by plaque formation assay; type: toxicity, cell-based, Mesocricetus auratus
[17] = Selectivity index, ratio of CC50 for hamster BHK-21 cells to EC50 for JEV SA14-14-2 infected in hamster BHK-21 cells; type: toxicity, cell-based; settings: read-out: Ratio CC50/EC50
[18] = system: Human immunodeficiency virus 1; test: Antiviral activity against HIV-1 NL4-3 infected in PBMC (unknown origin) assessed as reduction in viral replication; type: functional, organism-based; settings: Human immunodeficiency virus 1, NL4-3, PBMC
[19] = Cytotoxicity against PBMC (unknown origin) assessed as reduction in cell viability; type: toxicity, cell-based
[20] = Selectivity index, ratio of CC50 for hepatoma cells (unknown origin) to EC50 for HCV-1 infected in hepatoma cells (unknown origin); type: toxicity, cell-based; settings: read-out: Ratio CC50/EC50
Hepatitis C virus [21] = test: Antiviral activity against HCV-1 infected in human LucUbiNeo-ET cells assessed as reduction in viral replication incubated for 2 days by luminometry; type: functional, organism-based, Hepacivirus hominis; settings: genotype 1, LucUbiNeo-ET, 48 h
[22] = Cytotoxicity against human LucUbiNeo-ET cells assessed as reduction in cell viability by MTT assay; type: functional
[23] = Selectivity index, ratio of CC50 for human LucUbiNeo-ET cells to EC50 for HCV-1 infected in human LucUbiNeo-ET cells; type: toxicity, cell-based; settings: read-out: Ratio CC50/EC50
West Nile virus [24] = test: Antiviral activity against WNV infected in human Huh-7 cells assessed as reduction in viral replication; type: functional, organism-based
[25] = Selectivity index, ratio of CC50 for human Huh-7 cells to EC50 for WNV infected in human Huh-7 cells; type: toxicity, cell-based; settings: read-out: Ratio CC50/EC50
dengue virus type 2 [26] = test: Antiviral activity against DENV-2 New Guinea C infected in human Huh-7 cells assessed as reduction in viral replication; type: functional, organism-based
[27] = Selectivity index, ratio of CC50 for human Huh-7 cells to EC50 for DENV-2 New Guinea C infected in human Huh-7 cells; type: toxicity, cell-based; settings: read-out: Ratio CC50/EC50
[28] = Half life in rat administered intravenously; type: ADME; settings: in vivo, route iv
[29] = Selectivity index, ratio of CC50 for PBMC (unknown origin) to EC50 for HIV-1 NL4-3 infected in PBMC (unknown origin); type: toxicity; settings: read-out: Ratio CC50/EC50
[30] = molecular target: T1, ATP-dependent RNA helicase DDX3X; test: Inhibition of recombinant DDX3X (unknown origin) helicase activity using 6-FAM-labeled dsRNA as substrate incubated for 30 mins by fluorescence based assay
[31] = system: Human immunodeficiency virus 1; test: Antiviral activity against recombinant HIV-1 infected in CD4+ human HeLa cells assessed as reduction in viral replication; type: functional, organism-based; settings: Human immunodeficiency virus 1, HeLa
HeLa = test: Cytotoxicity against human HeLa cells assessed as reduction in cell viability incubated for 72 hrs with replacement of medium containing compound for every 24 hrs by MTS based Cell Titer 96 viability assay; type: functional
[32] = Selectivity index, ratio of CC50 for human HeLa cells to EC50 for recombinant HIV-1 infected in CD4+ human HeLa cells; type: toxicity, cell-based; settings: read-out: Ratio CC50/EC50
[33] = molecular target: T1, ATP-dependent RNA helicase DDX3X; test: Inhibition of DDX3X (unknown origin) helicase activity
[34] = Half life in mouse administered intravenously; type: ADME; settings: in vivo, route iv
Hepatitis C virus [35] = test: Antiviral activity against HCV-1 infected in hepatoma cells (unknown origin) assessed as reduction in viral replication; type: functional, organism-based, Hepacivirus hominis; settings: genotype 1, Hepatoma cell line
Hepatoma cell line = test: Cytotoxicity against hepatoma cells (unknown origin) assessed as reduction in cell viability; type: functional

T1 sequence (O00571 whole entry): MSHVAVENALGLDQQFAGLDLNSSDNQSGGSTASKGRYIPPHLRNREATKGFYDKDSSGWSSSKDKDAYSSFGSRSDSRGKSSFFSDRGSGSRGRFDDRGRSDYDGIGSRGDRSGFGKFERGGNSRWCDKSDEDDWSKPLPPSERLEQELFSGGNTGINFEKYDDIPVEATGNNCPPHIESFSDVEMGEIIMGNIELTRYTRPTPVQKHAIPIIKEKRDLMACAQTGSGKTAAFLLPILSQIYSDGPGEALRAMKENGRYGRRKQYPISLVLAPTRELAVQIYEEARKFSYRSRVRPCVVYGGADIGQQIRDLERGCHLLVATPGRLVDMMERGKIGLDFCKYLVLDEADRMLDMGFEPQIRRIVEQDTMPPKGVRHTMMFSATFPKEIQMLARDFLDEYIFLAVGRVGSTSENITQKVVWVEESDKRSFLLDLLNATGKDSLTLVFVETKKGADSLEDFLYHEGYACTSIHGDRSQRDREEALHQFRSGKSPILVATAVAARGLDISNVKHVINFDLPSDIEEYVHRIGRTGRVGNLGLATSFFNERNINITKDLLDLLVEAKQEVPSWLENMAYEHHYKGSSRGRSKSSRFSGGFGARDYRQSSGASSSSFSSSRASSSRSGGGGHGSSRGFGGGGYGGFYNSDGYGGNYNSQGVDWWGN

`COc1cc(/C=C2\SC(=S)N(CCC(=O)Nc3ccccc3O)C2=O)cc(OC)c1OC` gave a pKi [1] of 5.41.
`COc1ccc(/C=C2\SC(=S)N(CCC(=O)Nc3cccc(O)c3)C2=O)cc1` gave a pKi [1] of 5.70.
Compound `COc1ccc(Cn2c3ncnc4c(ncn4Cc4ccc(OC)cc4)c-3nc2=O)cc1` has a pEC50 (Hepatitis C virus [2]) of 5.70, a CC50 (Huh-7) of less than 10 µM and a selectivity ratio [3] of less than 5. For the same compound, the pEC50 (dengue virus type 2 [4]) was 5.07, the CC50 at 22 h [5] was 29.7 µM and the selectivity ratio [6] was 3.5. It also gave a pEC50 (Zika virus) of 5.15, a pEC50 (West Nile virus [7]) of 5.07 and a selectivity ratio [8] of 4.2. For the same compound, the selectivity ratio [9] was 3.5, the pEC50 (SARS-CoV-2) was greater than 5.30 and the CC50 [10] was greater than 30 µM. The pEC50 [11] was 4.87, the selectivity ratio [12] was 2.2 and the pEC50 (Human respirovirus 3) was 4.55. For the same compound, the selectivity ratio [13] was 1 and the half-life [14] was 7 h.
Compound `Cc1ccccc1NC(=O)Nc1cccc([N+](=O)[O-])c1` has a pEC50 [15] of 5.00, a CC50 at 48 h [16] greater than 50 µM and a selectivity ratio [17] greater than 5.
`CCCCc1cn(-c2ccc(NC(=O)Nc3ccccc3C)cc2)nn1` showed a pEC50 [18] of 5.96, a CC50 [19] greater than 100 µM and a selectivity ratio [20] greater than 200. The pEC50 (Hepatitis C virus [21]) was 6.01, the CC50 [22] was 49.8 µM and the selectivity ratio [23] was 51. For the same compound, the pEC50 (West Nile virus [24]) was 4.78, the selectivity ratio [25] was greater than 12 and the pEC50 [15] was 4.70. For the same compound, the CC50 at 48 h [16] was greater than 50 µM, the selectivity ratio [17] was greater than 2.5 and the pEC50 (dengue virus type 2 [26]) was 5.59. For the same compound, the selectivity ratio [27] was 78, the half-life [28] was 3 h and the selectivity ratio [29] was 91.
Work on `O=[N+]([O-])c1cccc(S(=O)(=O)Nc2ccccc2O)c1` yielded a pIC50 [30] of 6.44.
With `O=C(CCN1C(=O)/C(=C/c2cccc(Br)c2)SC1=S)Nc1cccc(O)c1` the pKi [1] was 4.05.
In the case of `OCCc1cc(Nc2ccc(F)cc2)nc(N/N=C/c2ccccc2O)n1`, the pEC50 [31] was 5.19, the CC50 (HeLa) was 65 µM and the selectivity ratio [32] was 10.
`Oc1ccccc1/C=N/Nc1nc(Nc2cccc(Cl)c2)nc(NN2CCOCC2)n1` showed a pKi [1] of 6.40.
Compound `COc1cccc(NC(=O)CCN2C(=O)/C(=C/c3ccccc3O)SC2=S)c1` has a pKi [1] of 5.00.
`Cc1ccccc1NC(=O)Nc1ccc(-n2cc(CO)nn2)cc1` gave a pKi [33] of 4.76.
In the case of `C(=N\Nc1nc(Nc2ccccc2)nc(Nc2ccccc2)n1)/c1ccccc1`, the pKi [1] was 5.12.
`CC(C)Cc1cn(-c2ccc(NC(=O)Nc3ccc4cnccc4c3)cc2)nn1` gave a pIC50 [33] of 6.82, a pEC50 (Hepatitis C virus [21]) of 6.05 and a CC50 [22] greater than 312 µM. The selectivity ratio [23] was 94 and the half-life [34] was 5 h.
In the case of `CCCCCCCCCCCCCCCCCCNC1=NC(=O)C2C(N=CN2[C@@H]2O[C@H](CO)[C@@H](O)[C@H]2O)C(=O)N1` (stereo partly drawn), the pEC50 (Hepatitis C virus [35]) was 4.74, the CC50 (Hepatoma cell line) was greater than 630 µM and the selectivity ratio [20] was greater than 35. For the same compound, the CC50 (Huh-7) was greater than 100 µM, the pEC50 (West Nile virus [24]) was 6.29 and the selectivity ratio [25] was greater than 195.
`Oc1ccc(Cl)cc1/C=N/Nc1nc(NCc2ccccc2)nc(NN2CCOCC2)n1` gave a pKi [1] of 5.72.
In the case of `COc1cc(/C=C2\SC(=S)N(CCC(=O)Nc3ccccc3Cl)C2=O)cc(OC)c1OC`, the pKi [1] was 7.00.
In the case of `COc1ccc(/C=C2\SC(=S)N(CCC(=O)Nc3ccccc3OC)C2=O)cc1`, the pKi [1] was 4.96.
Work on `O=[N+]([O-])c1cccc(/C=N/Nc2nc(NCc3ccccc3)nc(NNc3ccc(F)cc3)n2)c1O` yielded a pKi [1] of 5.40.
`O=C(CCN1C(=O)/C(=C/c2ccc3c(c2)OCO3)SC1=S)Nc1ccccc1[N+](=O)[O-]` showed a pKi [1] of 6.00.
With `O=C(NCCN1C(=O)/C(=C/c2ccccc2O)SC1=S)c1cccc(Br)c1` the pKi [1] was 5.38.
